According to patent US20150064724A1, “BIOMARKERS FOR PROGNOSES OF PULMONARY DISEASES” (University of Pittsburgh - of the Commonwealth System of …, priority 2009, published 2015):

Tested on: CD4+CD28null T cells from lung transplant recipients with BOS
Experiment: Inhibition of proliferation by cyclosporine A (BrdU incorporation, flow cytometry)
Format: cell-based, human
Settings: preliminary findings, n=2 subjects; compared with CD4+CD28+ cells
Protocol: Segregated CD28+ and CD28null CD4 T-cell subpopulations were individually cultured in duplicate wells coated with anti-CD3 monoclonal antibody (OKT3) (see above). Autologous nurse cells, positively selected during the initial CD4 T-cell isolations (see above) were added in a 3:1 nurse cell:CD4 T-cell ratio. In order to eliminate potential confounding by CD4dim monocytes, all CD4+ cells were depleted from the nurse cells (<<1% residual), prior to their use in cultures, by positive selection with anti-CD4-coated magnetic beads (Invitrogen, Carlsbad, Calif.). Cyclosporine (Novartis, East Hanover, N.J.) to a final concentration of 100 ng/ml was added to half the wells. Proliferation within the respective CD4 subpopulations were measured by bromodeoxyuridine (BrdU) incorporation, using reagents and methods supplied in a kit (BD Pharmingen). In brief, BrdU in a final concentration of 10 μM was added to cultures two days prior to their harvests. After 5±1 days of culture, cells were harvested from wells and stained with anti-CD4, fixed and permeabilized, and then incubated with anti-BrdU and 7-amino-actinomycin (7-AAD). The proportion of proliferating CD4+ T cells (BrdU+) among the viable cells (≧diploid DNA content) was determined by flow cytometry.

SMILES: C=CC[C@@H]1/C=C(\C)C[C@H](C)C[C@H](OC)[C@H]2O[C@@](O)(C(=O)C(=O)N3CCCC[C@H]3C(=O)O[C@H](/C(C)=C/[C@@H]3CC[C@@H](O)[C@H](OC)C3)[C@H](C)[C@@H](O)CC1=O)[C@H](C)C[C@@H]2OC [tacrolimus]
- resistance of CD4+CD28null T cells to the drug: relatively resistant
